Measurements as given in patent US20260354380A1, “PYRAZOLO PESTICIDAL COMPOUNDS” (BASF SE, priority 2022, published 2026).

Legend:
Format in all cases: in vivo
Anthonomus grandis = experiment: Action on Boll Weevil (Anthonomus grandis); settings: 800 ppm; egg and larval mortality; 5 days
Procedure, shortened: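 Diet in 96-well plates, seeded with 5-10 A. grandis eggs, received a spray of formulated compound (25% DMSO in water) at a range of concentrations, duplicated. Mortality of eggs and larvae was judged by eye after 5 days at about 25±1 °C, 75±5% relative humidity.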

Aedes aegypti = experiment: whole plant or invertebrate; settings: 800 ppm; larvae; 2 days
Procedure, shortened: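 Visual larval mortality was assessed 2 days after treatment (28±1 °C, 80±5% RH). Formulations of compounds or mixtures (75% water/25% DMSO) were applied by micro-atomizer onto diet of 5-15 newly hatched larvae per water-filled well, two replicates per concentration.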

Spodoptera eridania = experiment: Action on Southern Armyworm (Spodoptera eridania), 2nd Instar Larvae; settings: 300 ppm; 2nd instar larvae; 4 days after treatment
Procedure, shortened: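 2nd-instar Spodoptera eridania larvae (about 10–11 per pot) confined on sprayed, dried Lima bean plants (1st true leaf stage) in sealed bags. Spray solutions: acetone/water 1:1 plus 0.01% surfactant. Held 4 days near 25 °C, 20–40% RH; assessed for mortality and feeding reduction against untreated controls.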

Plutella xylostella = experiment: Action on Diamond Back Moth (Plutella xylostella), microtiter plates, insect diet, eggs; settings: 800 ppm; egg and larval mortality; 5 days
Procedure: Example B8: Action on Diamond Back Moth (Plutella xylostella)
For evaluating control of diamond back moth (Plutella xylostella) the test unit consisted of 96-well-microtiter plates containing an insect diet and 15-25 P. xylostella eggs. The compounds or mixtures were formulated using a solution containing 75% water and 25% DMSO. Different concentrations of formulated compounds or mixtures were sprayed onto the insect diet at 5 μl, using a custom-built micro atomizer, at two replications. For experimental mixtures in these tests identical volumes of both mixing partners at the desired concentrations respectively, were mixed together. After application, microtiter plates were incubated at 28±1 °C, 80±5% RH for 5 days. Egg and larval mortality was then visually assessed.

Heliothis virescens = experiment: Action on Tobacco Budworm (Heliothis virescens); settings: 800 ppm; egg and larval mortality; 5 days
Procedure, shortened: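 Eggs (15-25 per well) on diet were held 5 days at about 28±1 °C, 80±5% RH, then egg and larval mortality was scored by eye. Beforehand the diet had been sprayed with compound dilutions formulated in water/DMSO 75:25 v/v, in two replicates.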

Row | Compound | mortality in comparison with untreated controls (Anthonomus grandis) | mortality in comparison with untreated controls (Aedes aegypti) | mortality in comparison with untreated controls (Spodoptera eridania) | mortality in comparison with untreated controls (Plutella xylostella) | mortality in comparison with untreated controls (Heliothis virescens)
1 | Cc1ccc(C(C)C)c(N2C(=O)CSC2=NC(=O)Nc2ccc(-n3nc(C)c(NC(=O)c4ccc(C#N)cc4F)c3C)cc2)c1 [Example C-107] | at least 75% | at least 50% | at least 75% | at least 75% | at least 75%
2 | Cc1ccc(C(C)C)c(N2C(=O)CSC2=NC(=O)Nc2ccc(-n3nc(C)c(NC(=O)c4ccc(Cl)cc4)c3C)cc2)c1 [Example C-111] | at least 75% | at least 50% | at least 75% | at least 75% | at least 75%
3 | Cc1ccc(C(C)C)c(N2C(=O)CSC2=NC(=O)Nc2ccc(-n3nc(C)c(NC(=O)c4ccc(C#N)c(F)c4)c3C)cc2)c1 [Example C-108] | at least 75% | at least 50% | at least 75% | at least 75% | at least 75%
4 | Cc1ccc(C(C)C)c(N2CCSC2=NC(=O)Nc2ccc(-n3nc(C)c(NC(=O)c4ccc(OC(F)(F)F)cc4)c3C)cc2Cl)c1 [Example C-128] | at least 75% | at least 50% | at least 75% | at least 75% | at least 75%
5 | Cc1ccc(C(C)C)c(N2C(=O)CS/C2=N\C(=O)Nc2ccc(-n3nc(C)c(NC(=O)c4ccc(OC(F)(F)F)cc4)c3N)cc2)c1 [Example C-101] | at least 75% | at least 50% | at least 75% | at least 75% | at least 75%
6 | Cc1ccc(C(C)C)c(N2C(=O)CS/C2=N\C(=O)Nc2cc(Cl)c(-n3nc(C)c(NC(=O)c4ccc(OC(F)(F)F)cc4)c3C)cc2C)c1 [Example C-98] | at least 75% | at least 50% | at least 75% | at least 75% | at least 75%
7 | Cc1ccc(C(C)C)c(N2C(=O)CS/C2=N\C(=O)Nc2c(C)cc(-n3nc(C)c(NC(=O)c4ccc(OC(F)(F)F)cc4)c3C)cc2Cl)c1 [Example C-105] | at least 75% | at least 50% | at least 75% | at least 75% | at least 75%
8 | Cc1ccc(C(C)C)c(N2C(=O)CSC2=NC(=O)Nc2ccc(-n3cc(NC(=O)c4ccc([N+](=O)[O-])cc4)c(C)n3)cc2)c1 [Example C-54] | at least 75% | at least 50% | at least 75% | at least 75% | at least 75%
9 | Cc1nn(-c2ccc(NC(=O)NC(=S)Nc3ccccc3C(C)C)cc2)cc1NC(=O)c1ccc(OC(F)(F)F)cc1 [Example C-126] | at least 75% | at least 50% | at least 75% | at least 75% | at least 75%
10 | Cc1ccc(C(C)C)c(N2C(=O)CSC2=NC(=O)Nc2ccc(-n3nc(C)c(NC(=O)c4ccc(F)cc4)c3C)cc2)c1 [Example C-112] | at least 75% | at least 50% | at least 75% | at least 75% | at least 75%
11 | Cc1ccc(C(C)C)c(N2C(=O)CS/C2=N\C(=O)Nc2ccc(-n3nc(C)c(NC(=O)c4ccc(OC(F)(F)F)cc4)c3NCC3OCCO3)cc2)c1 [Example C-100] | at least 75% | at least 50% | at least 75% | at least 75% | at least 75%
12 | Cc1ccc(C(C)C)c(N2C(=O)CSC2=NC(=O)Nc2ccc(-n3nc(C)c(NC(=O)c4ccc(Cl)c(Cl)c4)c3C)cc2)c1 [Example C-115] | at least 75% | at least 50% | at least 75% | at least 75% | at least 75%
13 | Cc1ccc(C(C)C)c(N2C(=O)CS/C2=N\C(=O)Nc2ccc(-n3cc(NC(=O)c4ccc(Cl)cc4)c(C)n3)cc2)c1 [Example C-29] | at least 75% | at least 50% | at least 75% | at least 75% | at least 75%
14 | Cc1ccc(C(C)C)c(N2C(=O)CSC2=NC(=O)Nc2ccc(-n3nc(C)c(NC(=O)c4cc(F)c(F)cc4F)c3C)cc2)c1 [Example C-120] | at least 75% | at least 50% | at least 75% | at least 75% | at least 75%
15 | Cc1ccc(C(C)C)c(N2C(=O)CS/C2=N\C(=O)Nc2ccc(-n3nc(C)c(NC(=O)c4ccc(Cl)c(Cl)c4)c3C)cc2Cl)c1 [Example C-102] | at least 75% | at least 50% | at least 75% | at least 75% | at least 75%
16 | Cc1ccc(C(C)C)c(N2C(=O)CS/C2=N\C(=O)Nc2ccc(-n3nc(C)c(NC(=O)c4ccc(Cl)cc4F)c3C)cc2Cl)c1 [Example C-106] | at least 75% | at least 50% | at least 75% | at least 75% | at least 75%
17 | Cc1ccc(C(C)C)c(N2C(=O)CSC2=NC(=O)Nc2ccc(-n3nc(C)c(NC(=O)c4ccc(Br)cc4)c3C)cc2)c1 [Example C-116] | at least 75% | at least 50% | at least 75% | at least 75% | at least 75%
18 | CCN(C(=O)c1ccc(Cl)c(Cl)c1)c1c(C)nn(-c2ccc(NC(=O)/N=C3\SCC(=O)N3c3cc(C)ccc3C(C)C)c(Cl)c2)c1C [Example C-103] | at least 75% | at least 50% | at least 75% | at least 75% | at least 75%
19 | Cc1ccc(C(C)C)c(N2C(=O)CSC2=NC(=O)Nc2ccc(-n3nc(C)c(NC(=O)c4cc(F)c(F)c(F)c4)c3C)cc2)c1 [Example C-117] | at least 75% | at least 50% | at least 75% | at least 75% | at least 75%
20 | Cc1ccc(C(C)C)c(N2C(=O)CSC2=NC(=O)Nc2ccc(-n3nc(C)c(NC(=O)c4ccc(Cl)cc4F)c3C)cc2)c1 [Example C-110] | at least 75% | at least 50% | at least 75% | at least 75% | at least 75%
21 | Cc1ccc(C(C)C)c(N2C(=O)CSC2=NC(=O)Nc2ccc(-n3nc(C)c(NC(=O)c4ccc(OC(F)(F)F)cc4)c3C)c(Cl)c2)c1 [Example C-45] | at least 75% | at least 50% | at least 75% | at least 75% | at least 75%
